Results reported in patent publication US9315520B2, “2-amino-6-methyl-4,4a,5,6-tetrahydropyrano[3,4-d][1,3]thiazin-8a(8H)-yl-1,3-thiazol-4-yl amides” (Pfizer Inc., priority 2014, dated 2016).
Counter-ions that a name gives are not always drawn.

target: BACE1 (Homo sapiens (Human), UniProt P56817); experiment: BACE1 Cell-Free Assay (fluorescence polarization); type: biochemical; details: geometric mean of 2-4 determinations unless otherwise indicated (b: ≧5; c: single determination); read-out: BACE1 Cell-free Assay IC50
Sequence (P56817 46-457): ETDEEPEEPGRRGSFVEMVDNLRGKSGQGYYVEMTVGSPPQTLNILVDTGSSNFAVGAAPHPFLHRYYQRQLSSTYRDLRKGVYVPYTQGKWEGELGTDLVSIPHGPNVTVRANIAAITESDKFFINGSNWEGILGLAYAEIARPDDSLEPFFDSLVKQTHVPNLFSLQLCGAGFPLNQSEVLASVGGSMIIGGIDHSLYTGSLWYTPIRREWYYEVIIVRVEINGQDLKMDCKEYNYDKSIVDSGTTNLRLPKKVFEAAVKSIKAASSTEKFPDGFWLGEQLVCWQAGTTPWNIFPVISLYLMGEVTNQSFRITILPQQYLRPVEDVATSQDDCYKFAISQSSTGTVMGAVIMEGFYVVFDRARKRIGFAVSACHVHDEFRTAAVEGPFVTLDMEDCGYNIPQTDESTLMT

SMILES | IC50 [µM]
CC(C)Cc1cc(C(=O)Nc2csc([C@]34CO[C@@H](C)C[C@H]3CSC(N)=N4)n2)no1 [Example 62, N-{2-[(4aR,6S,8aR)-2-amino-6-methyl-4,4a,5,6-tetrahydropyrano[3,4-d][1,3]thiazin-8a(8H)-yl]-1,3-thiazol-4-yl}-5-(2-methylpropyl)-1,2-oxazole-3-carboxamide, trifluoroacetate salt] | 9.69
C[C@H]1C[C@H]2CSC(N)=N[C@@]2(c2nc(NC(=O)c3cnn(C)c3)cs2)CO1 [Example 63, N-{2-[(4aR,6S,8aR)-2-amino-6-methyl-4,4a,5,6-tetrahydropyrano[3,4-d][1,3]thiazin-8a(8H)-yl]-1,3-thiazol-4-yl}-1-methyl-1H-pyrazole-4-carboxamide, trifluoroacetate salt] | 3.94
Cc1cc(C(=O)Nc2csc([C@]34CO[C@@H](C)C[C@H]3CSC(N)=N4)n2)no1 [Example 64, N-{2-[(4aR,6S,8aR)-2-amino-6-methyl-4,4a,5,6-tetrahydropyrano[3,4-d][1,3]thiazin-8a(8H)-yl]-1,3-thiazol-4-yl}-5-methyl-1,2-oxazole-3-carboxamide, trifluoroacetate salt] | 2.62
CC(C)Cc1cc(C(=O)Nc2csc([C@]34CO[C@@H](C)C[C@H]3CSC(N)=N4)n2)nn1C [Example 65, N-{2-[(4aR,6S,8aR)-2-amino-6-methyl-4,4a,5,6-tetrahydropyrano[3,4-d][1,3]thiazin-8a(8H)-yl]-1,3-thiazol-4-yl}-1-methyl-5-(2-methylpropyl)-1H-pyrazole-3-carboxamide, trifluoroacetate salt] | 51
C[C@H]1C[C@H]2CSC(N)=N[C@@]2(c2nc(NC(=O)c3ccncn3)cs2)CO1 [Example 66, N-{2-[(4aR,6S,8aR)-2-amino-6-methyl-4,4a,5,6-tetrahydropyrano[3,4-d][1,3]thiazin-8a(8H)-yl]-1,3-thiazol-4-yl}pyrimidine-4-carboxamide, trifluoroacetate salt] | 0.575
Cc1cc(C(=O)Nc2csc([C@]34CO[C@@H](C)C[C@H]3CSC(N)=N4)n2)on1 [Example 67, N-{2-[(4aR,6S,8aR)-2-amino-6-methyl-4,4a,5,6-tetrahydropyrano[3,4-d][1,3]thiazin-8a(8H)-yl]-1,3-thiazol-4-yl}-3-methyl-1,2-oxazole-5-carboxamide, trifluoroacetate salt] | 5.04
Cc1cnc(C(=O)Nc2csc([C@]34CO[C@@H](C)C[C@H]3CSC(N)=N4)n2)cn1 [Example 68, N-{2-[(4aR,6S,8aR)-2-amino-6-methyl-4,4a,5,6-tetrahydropyrano[3,4-d][1,3]thiazin-8a(8H)-yl]-1,3-thiazol-4-yl}-5-methylpyrazine-2-carboxamide, trifluoroacetate salt] | 2.11
CC(C)c1cc(C(=O)Nc2csc([C@]34CO[C@@H](C)C[C@H]3CSC(N)=N4)n2)n(C)n1 [Example 70, N-{2-[(4aR,6S,8aR)-2-amino-6-methyl-4,4a,5,6-tetrahydropyrano[3,4-d][1,3]thiazin-8a(8H)-yl]-1,3-thiazol-4-yl}-1-methyl-3-(propan-2-yl)-1H-pyrazole-5-carboxamide, trifluoroacetate salt] | 10.4
CCc1cc(C(=O)Nc2csc([C@]34CO[C@@H](C)C[C@H]3CSC(N)=N4)n2)on1 [Example 71, N-{2-[(4aR,6S,8aR)-2-amino-6-methyl-4,4a,5,6-tetrahydropyrano[3,4-d][1,3]thiazin-8a(8H)-yl]-1,3-thiazol-4-yl}-3-ethyl-1,2-oxazole-5-carboxamide, trifluoroacetate salt] | 9.26
CCn1cc(C(=O)Nc2csc([C@]34CO[C@@H](C)C[C@H]3CSC(N)=N4)n2)cn1 [Example 72, N-{2-[(4aR,6S,8aR)-2-amino-6-methyl-4,4a,5,6-tetrahydropyrano[3,4-d][1,3]thiazin-8a(8H)-yl]-1,3-thiazol-4-yl}-1-ethyl-1H-pyrazole-4-carboxamide, trifluoroacetate salt] | 7.48
Cc1cc(C(=O)Nc2csc([C@]34CO[C@@H](C)C[C@H]3CSC(N)=N4)n2)nn1C [Example 73, N-{2-[(4aR,6S,8aR)-2-amino-6-methyl-4,4a,5,6-tetrahydropyrano[3,4-d][1,3]thiazin-8a(8H)-yl]-1,3-thiazol-4-yl}-1,5-dimethyl-1H-pyrazole-3-carboxamide, trifluoroacetate salt] | 12.4
C[C@H]1C[C@H]2CSC(N)=N[C@@]2(c2nc(NC(=O)c3ncnn3C)cs2)CO1 [Example 74, N-{2-[(4aR,6S,8aR)-2-amino-6-methyl-4,4a,5,6-tetrahydropyrano[3,4-d][1,3]thiazin-8a(8H)-yl]-1,3-thiazol-4-yl}-1-methyl-1H-1,2,4-triazole-5-carboxamide, trifluoroacetate salt] | 4.56
C[C@H]1C[C@H]2CSC(N)=N[C@@]2(c2nc(NC(=O)c3cn(C)cn3)cs2)CO1 [Example 75, N-{2-[(4aR,6S,8aR)-2-amino-6-methyl-4,4a,5,6-tetrahydropyrano[3,4-d][1,3]thiazin-8a(8H)-yl]-1,3-thiazol-4-yl}-1-methyl-1H-imidazole-4-carboxamide, trifluoroacetate salt] | 18.2
C[C@H]1C[C@H]2CSC(N)=N[C@@]2(c2nc(NC(=O)c3cn(C)nn3)cs2)CO1 [Example 76, N-{2-[(4aR,6S,8aR)-2-amino-6-methyl-4,4a,5,6-tetrahydropyrano[3,4-d][1,3]thiazin-8a(8H)-yl]-1,3-thiazol-4-yl}-1-methyl-1H-1,2,3-triazole-4-carboxamide, trifluoroacetate salt] | 28.1
C[C@H]1C[C@H]2CSC(N)=N[C@@]2(c2nc(NC(=O)c3ccon3)cs2)CO1 [Example 77, N-{2-[(4aR,6S,8aR)-2-amino-6-methyl-4,4a,5,6-tetrahydropyrano[3,4-d][1,3]thiazin-8a(8H)-yl]-1,3-thiazol-4-yl}-1,2-oxazole-3-carboxamide, trifluoroacetate salt] | 0.777
C[C@H]1C[C@H]2CSC(N)=N[C@@]2(c2nc(NC(=O)C3CC(F)(F)C3)cs2)CO1 [Example 78, N-{2-[(4aR,6S,8aR)-2-amino-6-methyl-4,4a,5,6-tetrahydropyrano[3,4-d][1,3]thiazin-8a(8H)-yl]-1,3-thiazol-4-yl}-3,3-difluorocyclobutanecarboxamide, trifluoroacetate salt] | 1.49
C[C@H]1C[C@H]2CSC(N)=N[C@@]2(c2nc(NC(=O)c3ncccn3)cs2)CO1 [Example 79, N-{2-[(4aR,6S,8aR)-2-amino-6-methyl-4,4a,5,6-tetrahydropyrano[3,4-d][1,3]thiazin-8a(8H)-yl]-1,3-thiazol-4-yl}pyrimidine-2-carboxamide, trifluoroacetate salt] | 1.08
C[C@H]1C[C@H]2CSC(N)=N[C@@]2(c2nc(NC(=O)c3cc(Cl)n(C)n3)cs2)CO1 [Example 81, N-{2-[(4aR,6S,8aR)-2-amino-6-methyl-4,4a,5,6-tetrahydropyrano[3,4-d][1,3]thiazin-8a(8H)-yl]-1,3-thiazol-4-yl}-5-chloro-1-methyl-1H-pyrazole-3-carboxamide] | 3.38
C[C@H]1C[C@H]2CSC(N)=N[C@@]2(c2nc(NC(=O)c3cnc(C4CC4)cn3)cs2)CO1 [Example 82, N-{2-[(4aR,6S,8aR)-2-amino-6-methyl-4,4a,5,6-tetrahydropyrano[3,4-d][1,3]thiazin-8a(8H)-yl]-1,3-thiazol-4-yl}-5-cyclopropylpyrazine-2-carboxamide, hydrochloride salt] | 1.08
C[C@H]1C[C@H]2CSC(N)=N[C@@]2(c2nc(NC(=O)c3cnn(C(F)F)c3)cs2)CO1 [Example 83, N-{2-[(4aR,6S,8aR)-2-amino-6-methyl-4,4a,5,6-tetrahydropyrano[3,4-d][1,3]thiazin-8a(8H)-yl]-1,3-thiazol-4-yl}-1-(difluoromethyl)-1H-pyrazole-4-carboxamide] | 0.671
C[C@H]1C[C@H]2CSC(N)=N[C@@]2(c2nc(NC(=O)c3ccnn3C3CC3)cs2)CO1 [Example 85, N-{2-[(4aR,6S,8aR)-2-amino-6-methyl-4,4a,5,6-tetrahydropyrano[3,4-d][1,3]thiazin-8a(8H)-yl]-1,3-thiazol-4-yl}-1-cyclopropyl-1H-pyrazole-5-carboxamide, formate salt] | 4.24
CC(C)c1nc(C(=O)Nc2csc([C@]34CO[C@@H](C)C[C@H]3CSC(N)=N4)n2)co1 [Example 86, N-{2-[(4aR,6S,8aR)-2-amino-6-methyl-4,4a,5,6-tetrahydropyrano[3,4-d][1,3]thiazin-8a(8H)-yl]-1,3-thiazol-4-yl}-2-(propan-2-yl)-1,3-oxazole-4-carboxamide] | 16.2
C[C@H]1C[C@H]2CSC(N)=N[C@@]2(c2nc(NC(=O)c3ccn(CC(F)F)n3)cs2)CO1 [Example 87, N-{2-[(4aR,6S,8aR)-2-amino-6-methyl-4,4a,5,6-tetrahydropyrano[3,4-d][1,3]thiazin-8a(8H)-yl]-1,3-thiazol-4-yl}-1-(2,2-difluoroethyl)-1H-pyrazole-3-carboxamide] | 0.398
COCCn1ccc(C(=O)Nc2csc([C@]34CO[C@@H](C)C[C@H]3CSC(N)=N4)n2)n1 [Example 88, N-{2-[(4aR,6S,8aR)-2-amino-6-methyl-4,4a,5,6-tetrahydropyrano[3,4-d][1,3]thiazin-8a(8H)-yl]-1,3-thiazol-4-yl}-1-(2-methoxyethyl)-1H-pyrazole-3-carboxamide] | 0.418
C#CCn1ccc(C(=O)Nc2csc([C@]34CO[C@@H](C)C[C@H]3CSC(N)=N4)n2)n1 [Example 89, N-{2-[(4aR,6S,8aR)-2-amino-6-methyl-4,4a,5,6-tetrahydropyrano[3,4-d][1,3]thiazin-8a(8H)-yl]-1,3-thiazol-4-yl}-1-(prop-2-yn-1-yl)-1H-pyrazole-3-carboxamide] | 0.017
COCc1nc(C(=O)Nc2csc([C@]34CO[C@@H](C)C[C@H]3CSC(N)=N4)n2)co1 [Example 90, N-{2-[(4aR,6S,8aR)-2-amino-6-methyl-4,4a,5,6-tetrahydropyrano[3,4-d][1,3]thiazin-8a(8H)-yl]-1,3-thiazol-4-yl}-2-(methoxymethyl)-1,3-oxazole-4-carboxamide] | 0.175
